Assay [1] concerns Testpflanzen. In words: Pre-emergence-Test (herbicidal). The note with it: soil watered 24 h after sowing, damage rated after three weeks vs untreated control (0 % = keine Wirkung, 100 % = totale Vernichtung), rate or species not given. Format: in vivo. The source says: (§1) Lösungsmittel: 5 Gewichtsteile Aceton Emulgator: 1 Gewichtsteil Alkylarylpolyglykolether
(§2) Zur Herstellung einer zweckmäßigen Wirkstoffzubereitung vermischt man 1 Gewichtsteil Wirkstoff mit der angegebenen Menge Lösungsmittel, gibt die angegebene Menge Emulgator zu und verdünnt das Konzentrat mit Wasser auf die gewünschte Konzentration.
Samen der Testpflanzen werden in normalen Boden ausgesät und nach 24 Stunden mit der Wirkstoffzubereitung begossen. Dabei hält man die Wassermenge pro Flächeneinheit zweckmäßigerweise konstant. Die Wirkstoffkonzentration in der Zubereitung spielt keine Rolle, entscheidend ist nur die Aufwandmenge des Wirkstoffs pro Flächeneinheit. Nach drei Wochen wird der Schädigungsgrad der Pflanzen bonitiert in % Schädigung im Vergleich zur Entwicklung der unbehandelten Kontrolle. Es bedeuten: • 0 % = keine Wirkung (wie unbehandelte Kontrolle) 100 % = totale Vernichtung

Assay [2] deals with Testpflanzen. In words: Post-emergence-Test (herbicidal). The note with it: test plants 5 - 15 cm high sprayed, damage rated after three weeks vs untreated control (0 % = keine Wirkung, 100 % = totale Vernichtung), rate or species not given. Format: in vivo.
Description: as §1, §2
Mit der Wirkstoffzubereitung spritzt man Testpflanzen, welche eine Höhe von 5 - 15 cm haben so, daß die jeweils gewünschten Wirkstoffmengen pro Flächeneinheit ausgebracht werden. Die Konzentration der Spritzbrühe wird so gewählt, daß in 2000 1 Wasser/ha die jeweils gewünschten Wirkstoffmengen ausgebracht werden. Nach drei Wochen wird der Schädigungsgrad der Pflanzen bonitiert in % Schädigung im Vergleich zur Entwicklung der unbehandelten Kontrolle.
Es bedeuten: • 0 % = keine Wirkung (wie unbehandelte Kontrolle) 100 % = totale Vernichtung

Results on three molecules are retold here after patent publication EP0173319A1, “Substituted arylsulfonyl guanidines” (BAYER AG, priority 1984, dated 1986).

Each structure is given as a SMILES string.

In the case of `CON(C(=NS(=O)(=O)c1ccccc1SC)Nc1nc(C)cc(C)n1)S(=O)(=O)c1ccccc1SC` [Beispiel 1, N'-(4,6-Dimethyl-pyrimidin-2-yl)-N''-methoxy-N'',N'''-bis-(2-methylthio-benzolsulfonyl)-guanidin], the “herbizide Wirksamkeit” value in assay [1] and in assay [2] was “sehr gute herbizide Wirksamkeit” each time.

As for `Cc1cc(C)nc(NC(=NS(=O)(=O)c2ccccc2S(=O)(=O)N(C)C)NN(C)C)n1` [Beispiel 2, N'-(4,6-Dimethyl-pyrimidin-2-yl)-N''-dimethylamino-N'''-(2-dimethylamino-sulfonyl-benzolsulfonyl)-guanidin], the “herbizide Wirksamkeit” value in assay [1] and in assay [2] was “sehr gute herbizide Wirksamkeit” in each case.

Turning to `Cc1cc(C)nc(NC(=NS(=O)(=O)c2ccccc2S(=O)(=O)N(C)C)N(OCC(C)C)S(=O)(=O)c2ccccc2S(=O)(=O)N(C)C)n1.[K]` [Beispiel 4, N'-(4,6-Dimethyl-pyrimidin-2-yl)-N''-(2-methyl-propoxy)-N'',N'''-bis-(2-dimethylaminosulfonyl-benzolsulfonyl)-guanidin-Kaliumsalz], the “herbizide Wirksamkeit” value in assay [2] is “sehr gute herbizide Wirksamkeit”.
